How the values were obtained:
Assay type in all cases: physicochemical
[1] = Accelerated stability test of the bulk compound (试验例1 稳定性考察); conditions: 40℃±2℃, 6 months, sampled at 0, 1, 2, 3, 6 months
[2] = Freeze-drying test, water before and after (试验例2 冷冻干燥试验); conditions: 0.25 g/vial, vacuum, -40℃, 24 h
[3] = Accelerated stability of compressed tablets (试验例3 压片稳定性); conditions: round tablets 0.5 g/tablet, 40℃±2℃, 6 months, sampled at 0, 1, 2, 3, 6 months

| Structure (SMILES) | change in water content (accelerated test) [1] | change in water content after freeze-drying [2] | change in water content of compressed tablets (accelerated test) [3] | change in water content (accelerated test) ([1]; 1/20水) | change in water content after freeze-drying ([2]; 1/20水) | change in water content of compressed tablets (accelerated test) ([3]; 1/20水) |
| --- | --- | --- | --- | --- | --- | --- |
| NC(=O)c1ncn([C@@H]2O[C@H](CO)[C@@H](O)[C@H]2O)n1 [对比例1, 利巴韦林] | 明显降低 | 明显降低 | 明显降低 | – | – | – |
| NC(=O)c1ncn([C@@H]2O[C@H](CO)[C@@H](O)[C@H]2O)n1 [实施例1, 1/20水利巴韦林化合物] | – | – | – | 未发生明显变化 | 未发生明显变化 | 未发生明显变化 |
